Reference: US10000500B2 (PROMEGA CORPORATION, priority 2016, dated 2018)

molecular target: NANOLUC® Luciferase (Oplophorus gracilirostris, UniProt Q9GV45, A31E/A60N/A81I/F95D/I117V/K70R/L54V/L99Q/M102K/N193R/P142E/Q151K/Q38R/Q45L/V71I/Y165I); test: Luminescence assay with purified NANOLUC luciferase (Example 7); assay type: biochemical; settings: bioluminescence with NANOLUC luciferase
Protocol: Each compound to be screened was dissolved in DMSO (5 mM) and then further diluted to 100 uM in NANO-GLO® Luciferase Assay Buffer. Each diluted substrate was then combined in equal volumes with purified NANOLUC® Luciferase diluted into CO2 independent media+10% FBS. Initial light output for each substrate was measured in a GLOMAXI-Multi+luminometer three minutes after substrate addition and then at five minute intervals as a means to determine signal half-life.
The synthesized coelenterazine analogues (compounds of formula (I) and (II)) were evaluated for their suitability as luciferase substrates. NANOLUC® luciferase was employed for the screening because it is a small (19 kDa), stable, and particularly bright enzyme.

Sequence of NANOLUC® Luciferase (Q9GV45 28-196 with tags or gaps with the stated changes limits assumed): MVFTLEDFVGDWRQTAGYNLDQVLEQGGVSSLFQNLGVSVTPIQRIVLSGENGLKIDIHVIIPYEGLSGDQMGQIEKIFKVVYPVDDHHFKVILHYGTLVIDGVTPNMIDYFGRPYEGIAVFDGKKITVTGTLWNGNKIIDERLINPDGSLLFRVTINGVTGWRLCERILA

SMILES | λmax, nm
Cn1c(C#N)ccc1-c1[nH]c(-c2ccccc2)cn2c(=O)c(Cc3ccco3)nc1-2 [AS-311, 5-(2-(furan-2-ylmethyl)-3-oxo-6-phenyl-3,7-dihydroimidazo[1,2-a]pyrazin-8-yl)-1-methyl-1H-pyrrole-2-carbonitrile] | 505 nm
O=c1c(Cc2ccco2)nc2c(-c3ccco3)[nH]c(-c3ccco3)cn1-2 [AS-175, 6,8-di(furan-2-yl)-2-(furan-2-ylmethyl)imidazo[1,2-a]pyrazin-3(7H)-one] | 514 nm
Nc1ccc(-c2cn3c(=O)c(Cc4ccco4)nc-3c(-c3ccnc4ccccc34)[nH]2)cc1 [AS-330, 6-(4-aminopheny1)-2-(furan-2-ylmethyl)-8-(quinolin-4-yl)imidazo[1,2-a]pyrazin-3(7H)-one] | 583 nm
O=c1c(Cc2ccco2)nc2c(-c3cccs3)[nH]c(-c3ccccc3)cn1-2 [AS-236, 2-(furan-2-ylmethyl)-6-phenyl-8-(thiophen-2-yl)imidazo[1,2-a]pyrazin-3(7H)-one] | 514 nm
O=c1c(Cc2ccco2)nc2c(-c3ccnc(F)c3)[nH]c(-c3ccccc3)cn1-2 [AS-271, 8-(2-fluoropyridin-4-yl)-2-(furan-2-ylmethyl)-6-phenylimidazo[1,2-a]pyrazin-3(7H)-one] | 532 nm
N#Cc1ccc(-c2[nH]c(-c3ccccc3)cn3c(=O)c(Cc4ccco4)nc2-3)cc1 [AS-237, 4-(2-(furan-2-ylmethyl)-3-oxo-6-phenyl-3,7-dihydroimidazo[1,2-a]pyrazin-8-yl)benzonitrile] | 559 nm
O=c1c(Cc2ccco2)nc2c(-c3ccsc3)[nH]c(-c3ccccc3)cn1-2 [AS-229, 2-(furan-2-ylmethyl)-6-phenyl-8-(thiophen-3-yl)imidazo[1,2-a]pyrazin-3(7H)-one] | 496 nm
O=c1c(Cc2ccco2)nc2c(-c3ccnc(F)c3)[nH]c(-c3cccs3)cn1-2 [AS-306, 8-(2-fluoropyridin-4-yl)-2-(furan-2-ylmethyl)-6-(thiophen-2-yl)imidazo[1,2-a]pyrazin-3(7H)-one] | 544 nm
N#Cc1cccc(-c2[nH]c(-c3ccccc3)cn3c(=O)c(Cc4ccco4)nc2-3)c1 [AS-274, 3-(2-(furan-2-ylmethyl)-3-oxo-6-phenyl-3,7-dihydroimidazo[1,2-a]pyrazin-8-yl)benzonitrile] | 514 nm
O=c1c(Cc2ccco2)nc2c(-c3ccnc(Cl)c3)[nH]c3c(n1-2)CCc1ccccc1-3 [AS-342, 12-(2-chloropyridin-4-yl)-2-(furan-2-ylmethyl)-5,11-dihydrobenzo[f]imidazo[1,2-a]quinoxalin-3(6H)-one] | 538 nm
O=c1c(Cc2ccco2)nc2c(-c3ccnc4ccccc34)[nH]c3c(n1-2)CCc1ccccc1-3 [AS-341, 2-(furan-2-ylmethyl)-12-(quinolin-4-yl)-5,11-dihydrobenzo[f]imidazo[1,2-a]quinoxalin-3(6H)-one] | 583 nm
O=c1c(Cc2ccco2)nc2c(-c3cc(F)c(F)c(F)c3)[nH]c(-c3ccccc3)cn1-2 [AS-270, 2-(furan-2-ylmethyl)-6-pheny1-8-(3,4,5-trifluorophenyl)imidazo[1,2-a]pyrazin-3(7H)-one] | 502 nm
O=c1c(Cc2ccco2)nc2c(-c3ccc(Cl)s3)[nH]c(-c3ccccc3)cn1-2 [AS-280, 8-(5-chlorothiophen-2-yl)-2-(furan-2-ylmethyl)-6-phenylimidazo[1,2-a]pyrazin-3(7H)-one] | 523 nm
O=c1c(Cc2ccco2)nc2c(-c3ccccc3)[nH]c(-c3ccccc3)c(-c3ccccc3)n1-2 [AS-248, 2-(furan-2-ylmethyl)-5,6,8-triphenylimidazo[1,2-a]pyrazin-3(7H)-one] | 520 nm
O=c1c(Cc2ccco2)nc2c(-c3cccs3)[nH]c(-c3cccs3)cn1-2 [AS-176, 2-(furan-2-ylmethyl)-6,8-di(thiophen-2-yl)imidazo[1,2-a]pyrazin-3(7H)-one] | 496 nm
O=c1c(Cc2ccco2)nc2c(-c3ccncc3)[nH]c(-c3ccccc3)cn1-2 [AS-276, 2-(furan-2-ylmethyl)-6-phenyl-8-(pyridin-4-yl)imidazo[1,2-a]pyrazin-3(7H)-one] | 523 nm
O=c1c(Cc2ccco2)nc2c(-c3ccc(F)nc3)[nH]c(-c3ccccc3)cn1-2 [AS-273, 8-(6-fluoropyridin-3-yl)-2-(furan-2-ylmethyl)-6-phenylimidazo[1,2-a]pyrazin-3(7H)-one] | 496 nm
CN(C)c1ccc(-c2[nH]c(-c3ccccc3)cn3c(=O)c(Cc4ccco4)nc2-3)cc1 [AS-224, 8-(4-(dimethylamino)phenyl)-2-(furan-2-ylmethyl)-6-phenylimidazo[1,2-a]pyrazin-3(7H)-one] | 502 nm
O=c1c(Cc2ccco2)nc2c(-c3ccnc(Br)c3)[nH]c(-c3ccccc3)cn1-2 [AS-314, 8-(2-bromopyridin-4-yl)-2-(furan-2-ylmethyl)-6-phenylimidazo[1,2-a]pyrazin-3(7H)-one] | 538 nm

SMILES | λmax, nm
O=c1c(Cc2ccco2)nc2c(-c3cccnc3)[nH]c(-c3ccccc3)cn1-2 [AS-277, 2-(furan-2-ylmethyl)-6-phenyl-8-(pyridin-3-yl)imidazo[1,2-a]pyrazin-3(7H)-one] | 517 nm
Nc1ccc(-c2cn3c(=O)c(Cc4ccco4)nc-3c(Cc3ccccc3)[nH]2)cc1 [JRW-0445, 6-(4-aminophenyl)-8-benzyl-2-(furan-2-ylmethyl)imidazo[1,2-a]pyrazin-3(7H)-one] | 502 nm
O=c1c(Cc2ccco2)nc2c(C#Cc3ccccc3)[nH]c(-c3ccccc3)cn1-2 [AS-242, 2-(furan-2-ylmethyl)-6-phenyl-8-(phenylethynyl)imidazo[1,2-a]pyrazin-3(7H)-one] | 517 nm
O=c1c(Cc2ccco2)nc2c(-c3ccc(F)cc3)[nH]c(-c3ccccc3)cn1-2 [AS-269, 8-(4-fluorophenyl)-2-(furan-2-ylmethyl)-6-phenylimidazo[1,2-a]pyrazin-3(7H)-one] | 490 nm
O=c1c(Cc2ccco2)nc2c(-c3cccnc3F)[nH]c(-c3ccccc3)cn1-2 [AS-272, 8-(2-fluoropyridin-3-yl)-2-(furan-2-ylmethyl)-6-phenylimidazo[1,2-a]pyrazin-3(7H)-one] | 508 nm
Nc1cccc(-c2cn3c(=O)c(Cc4ccco4)nc-3c(Cc3ccccc3)[nH]2)c1 [JRW-0438, 6-(3-aminophenyl)-8-benzyl-2-(furan-2-ylmethyl)imidazo[1,2-a]pyrazin-3(7H)-one] | 487 nm
O=c1c(Cc2ccco2)nc2c(-c3ccnc(Cl)c3)[nH]c(-c3ccccc3)cn1-2 [AS-275, 8-(2-chloropyridin-4-yl)-2-(furan-2-ylmethyl)-6-phenylimidazo[1,2-a]pyrazin-3(7H)-one] | 535 nm
Cn1cc(-c2[nH]c(-c3ccn(C)n3)cn3c(=O)c(Cc4ccco4)nc2-3)cn1 [AS-190, 2-(furan-2-ylmethyl)-6-(1-methyl-1H-pyrazol-3-yl)-8-(1-methyl-1H-pyrazol-4-yl)imidazo[1,2-a]pyrazin-3(7H)-one] | 496 nm
O=c1c(Cc2ccco2)nc2c(-c3cccc4ccccc34)[nH]c(-c3ccccc3)cn1-2 [AS-215, 2-(furan-2-ylmethyl)-8-(naphthalen-1-yl)-6-phenylimidazo[1,2-a]pyrazin-3(7H)-one] | 517 nm
Cn1cc(-c2[nH]c(-c3ccccc3)cn3c(=O)c(Cc4ccco4)nc2-3)ccc1=O [AS-256, 2-(furan-2-ylmethyl)-8-(1-methyl-6-oxo-1,6-dihydropyridin-3-yl)-6-phenylimidazo[1,2-a]pyrazin-3(7H)-one] | 496 nm
N#Cc1ccc(-c2[nH]c(-c3ccc(N)cc3)cn3c(=O)c(Cc4ccco4)nc2-3)s1 [AS-332, 5-(6-(4-aminophenyl)-2-(furan-2-ylmethyl)-3-oxo-3,7-dihydroimidazo[1,2-a]pyrazin-8-yl)thiophene-2-carbonitrile] | 598 nm
O=c1c(Cc2ccco2)nc2c(-c3sccc3Cl)[nH]c(-c3ccccc3)cn1-2 [AS-282, 8-(3-chlorothiophen-2-yl)-2-(furan-2-ylmethyl)-6-phenylimidazo[1,2-a]pyrazin-3(7H)-one] | 505 nm
O=c1c(Cc2ccco2)nc2c(-c3ccc4scnc4c3)[nH]c(-c3ccccc3)cn1-2 [AS-250, 8-(benzo[d]thiazol-5-yl)-2-(furan-2-ylmethyl)-6-phenylimidazo[1,2-a]pyrazin-3(7H)-one] | 511 nm
N#Cc1ccc(-c2[nH]c3c(n4c(=O)c(Cc5ccco5)nc2-4)CCc2ccccc2-3)s1 [AS-340, 5-(2-(furan-2-ylmethyl)-3-oxo-3,5,6,11-tetrahydrobenzo[f]imidazo[1,2-a]quinoxalin-12-yl)thiophene-2-carbonitrile] | 574 nm
N#Cc1c(-c2ccccc2)[nH]c(-c2ccnc(F)c2)c2nc(Cc3ccco3)c(=O)n1-2 [AS-301, 8-(2-fluoropyridin-4-yl)-2-(furan-2-ylmethyl)-3-oxo-6-phenyl-3,7-dihydroimidazo[1,2-a]pyrazine-5-carbonitrile] | 529 nm
Nc1ccccc1-c1cn2c(=O)c(Cc3ccco3)nc-2c(Cc2ccccc2)[nH]1 [JRW-0446, 6-(2-aminophenyl)-8-benzyl-2-(furan-2-ylmethyl)imidazo[1,2-a]pyrazin-3(7H)-one] | 487 nm
O=c1c(Cc2ccco2)nc2c(-c3cccnc3Cl)[nH]c(-c3ccccc3)cn1-2 [AS-278, 8-(2-chloropyridin-3-yl)-2-(furan-2-ylmethyl)-6-phenylimidazo[1,2-a]pyrazin-3(7H)-one] | 499 nm
Nc1ccc(-c2cn3c(=O)c(Cc4ccco4)nc-3c(-c3ccnc(Cl)c3)[nH]2)cc1 | 571 nm
